For 25 compounds, IC50 results are on record in patent publication US10501460B2, “Heterocyclic compounds and uses thereof” (Plexxikon Inc., priority 2013, dated 2019).

One assay has as its system bromodomain. Put plainly: Bromodomain cell assays of Example 40 (at least one of them). In kind it is cell-based. To be noted: in at least one of the bromodomain cell assays described in Example 40. The text has this:
(§1) Published bromodomain inhibitors JQ1 and iBET 151 have shown activity in variety of cancer cells such leukemia and lymphoma, multiple myeloma cells, NUT midline carcinoma and glioblastoma cells (Dawson M A et al. 2011; Delmore J E 2011; Chen Z et al. 2013; Filippakopoulos P et al. 2010; Mertz J A et al. 2011; Ott C J et al. 2012). In this study, we test compounds in different cancer cell lines. MV-4-11 and MOLM-13 are AML cell lines harboring a MLL-AF4 and MLL-AF9 translocation, respectively. MM.1S is a multiple myeloma cell line. SK-N-AS, IMR-32 and SK-N-BE(2) are neuroblastoma cell lines. IMR-32 and SK-N-BE(2) cell lines harbor MYCN amplifications. MV-4-11, MM.1S, IMR-32, SK-N-AS and SK-N-BE(2) were obtained from ATCC (IL, USA) and MOLM-13 were purchased from DSMZ (Braunschweig, German). Cells are cultured as recommended by their sources. For growth inhibition studies 3000 cells are seeded in wells of a 96-well plate in 75 μL of culture media. After several hours, growth media containing compounds of formula (I) are added to the wells. Compound at a maximal concentration of 5 mM was serially diluted 1:3 for a total of 8 point titration with DMSO as a control. A 1 μL aliquot of each dilution point is added to 249 μL growth media and 75 μL is added to each well containing cells, providing 10 μM compound at the maximum concentration point. The final concentration of DMSO in all wells is 0.2%. Cells are incubated for 72 hours, and 25 μL of CellTiter Glo Reagent (Promega Ga., USA) is added to each well. Plates are shaken for approximately 10 minutes and chemiluminescent signal is read on Tecan microplate reader. The measured luminescence correlates directly with cell number.
(§2) All data is normalized to the mean of eight DMSO high control wells on each plate. A four parameter curve fit of the following formula was then applied: Y=a+(b−a)/(1+(x/c)^d) Where ‘a’ is the minimum, ‘b’ is the maximum, ‘c’ is the pIC50 and ‘d’ is the Hill slope. […] Myc Reporter Assay
In MV-4-11 cells, BRD2, BRD3 and BRD4 bind to the promoter region of MYC and regulate its transcription (Dawson M A et al. 2011). The literature bromodomain inhibitor iBET 151 could disrupt BRD4 recruitment to the MYC promoter and subsequently downregulate c-myc transcription (Dawson M A et al. 2011). Myc protein is a transcription factor that heterodimerizes with an obligatory partner Max and regulates the transcription of genes important for cell proliferation, differentiation, and apoptosis. This Myc reporter assay is used to monitor the inhibitory effect of compound of formula (I) on Myc dependent gene expression. Effective compounds could have potential therapeutic effects in Myc-driven tumors.
The MV-4-11 Myc reporter cell line is established by infecting MV-4-11 with VSV-g pseudotyped lentivirus expressing the firefly luciferase gene under the control of a minimal (m) CMV promoter and tandem repeats of the E-box transcriptional response element (TRE) (Qiagen IL, USA) and selecting cells in […] Puromycin.
The MV-4-11 Myc reporter cell line is maintained in Iscove's Modified Dulbecco's Medium containing 10% FBS, 1% PenStep and 2.5 μg/ml Puromycin. Cells are incubated at 37° C. in a humidified atmosphere with 5% CO2. 25,000 cells are seeded in 96-well plate in 50 μL of culture media. After several hours, growth media containing 2× compounds are added to the wells. Compound at a maximal concentration of 5 mM is serially diluted 1:3 for a total of 8 point titration. A 1 μl aliquot of each dilution point is added to 249 μl growth media and 50 μl is added to each well containing cells, providing 10 μM compound at the maximum concentration point. DMSO treated cells serve as a high control and 10 μM JQ1 treated cells serve as a low control. Cells are incubated for a further 24 hours and 25 μL of CellTiter-Fluo Reagent (Promega Ga., USA) is added to each well. Plates are shaken for approximately 2 minutes and incubated at 37° C. for 0.5 hour. […]

The next assay deals with MV-4-11. Put plainly: Oncology cell growth assay MV-4-11 (CellTiter Glo, 72 hours). In kind it is cell-based. To be noted: Homo sapiens, MV4-11, 72 h; MV-4-11 cell growth inhibitory activity, 3d.
Source text: as §1, §2
The following table provides data indicating the BRD4 biochemical inhibitory activity and MV-4-11 cell growth inhibitory activity for exemplary compounds as described herein.
(Cellular ATP, detected with luciferase, serves as a proxy for viable cell number.)

Broadly, the IC50 is the point on the concentration scale where inhibition reaches its midpoint. A higher IC50 goes with lower potency. `Cc1noc(C)c1-c1cnc2c(I)c(C(F)(F)F)n(C(C)c3ccccc3)c2c1` (stereo not shown) [P-0245, 4-[3-iodo-1-(1-phenylethyl)-2-(trifluoromethyl)pyrrolo[3,2-b]pyridin-6-yl]-3,5-dimethyl-isoxazole] gave an IC50 in the assay with bromodomain of less than 10 µM.

The compound `CCc1[nH]c2ncc(-c3c(C)noc3C)cc2c1CC1CCC(F)(F)CC1` [P-0051, 4-[3-[(4,4-difluorocyclohexyl)methyl]-2-ethyl-1H-pyrrolo[2,3-b]pyridin-5-yl]-3,5-dimethyl-isoxazole] came in with an IC50 in the assay on bromodomain of less than 10 µM.

`COCCn1cc(-c2cn(CC3(F)CCCCC3)c3cc(-c4c(C)noc4C)cnc23)cn1` [P-0238, 4-[1-[(1-fluorocyclohexyl)methyl]-3-[1-(2-methoxyethyl)pyrazol-4-yl]pyrrolo[3,2-b]pyridin-6-yl]-3,5-dimethyl-isoxazole] yielded an IC50 in the assay with bromodomain of less than 10 µM.

The compound `Cc1noc(C)c1-c1cnc2ccn(S(=O)(=O)N3CCCCC3)c2c1` [P-0067, 3,5-dimethyl-4-[1-(1-piperidylsulfonyl)pyrrolo [3,2-b]pyridin-6-yl] isoxazole] came in with a half-maximal inhibitory concentration (IC50) with bromodomain of less than 10 µM.

Turning to `Cc1noc(C)c1-c1cnc2ccn(Cc3ccccc3)c2c1` [P-0162, 4-(1-benzylpyrrolo[3,2-b]pyridin-6-yl)-3,5-dimethyl-isoxazole], the IC50 in the assay on MV-4-11 is not above 1 µM.

Take `Cc1noc(C)c1-c1cnc2c(-c3cnn(C(F)F)c3)cn(CC3(F)CC=C(F)CC3)c2c1` (stereo not shown) [P-0244, 4-[1-[(1,4-difluorocyclohex-3-en-1-yl)methyl]-3-[1-(difluoromethyl)pyrazol-4-yl]pyrrolo[3,2-b]pyridin-6-yl]-3,5-dimethyl-isoxazole]: the IC50 in the assay with bromodomain is less than 10 µM.

The compound `[2H]C([2H])(F)C(c1ccccc1)n1cc(-c2cnn(C)c2)c2ncc(-c3c(C)noc3C)cc21` (stereo not shown) [P-0233, 4-[1-(2,2-dideuterio-2-fluoro-1-phenyl-ethyl)-3-(1-methylpyrazol-4-yl)pyrrolo[3,2-b]pyridin-6-yl]-3,5-dimethyl-isoxazole] had an IC50 in the assay with bromodomain of less than 10 µM.

In the assay on MV-4-11, `CCn1cc(-c2cn(S(=O)(=O)c3ccccc3)c3cc(-c4c(C)noc4C)cnc23)cn1` [P-0124, 4-[1-(benzenesulfonyl)-3-(1-ethylpyrazol-4-yl)pyrrolo[3,2-b]pyridin-6-yl]-3,5-dimethyl-isoxazole] yielded an IC50 not above 1 µM.

`Cc1noc(C)c1-c1ccc2c(-c3cnn(C)c3)cn(Cc3c(F)cccc3F)c2c1` [P-0229, 4-[1-[(2,6-difluorophenyl)methyl]-3-(1-methylpyrazol-4-yl)indol-6-yl]-3,5-dimethyl-isoxazole] returned an IC50 with bromodomain of less than 10 µM.

Compound `Cc1noc(C)c1-c1cnc2c(-c3cnn(C(F)F)c3)cn(CC3(F)CCC4(CC3)OCCO4)c2c1` [P-0241, 4-[3-[1-(difluoromethyl)pyrazol-4-yl]-1-[(8-fluoro-1,4-dioxaspiro[4.5]decan-8-yl)methyl]pyrrolo[3,2-b]pyridin-6-yl]-3,5-dimethyl-isoxazole] had an IC50 in the assay with bromodomain of less than 10 µM.

Turning to `Cc1noc(C)c1-c1ccc2c(-c3cnn(C)c3)cn(Cc3ccccc3F)c2c1` [P-0226, 4-[1-[(2-fluorophenyl)methyl]-3-(1-methylpyrazol-4-yl)indol-6-yl]-3,5-dimethyl-isoxazole], in the assay on bromodomain, the IC50 is less than 10 µM.

As to `Cc1noc(C)c1-c1cnc2c(-c3cn[nH]c3)cn(CC3(F)CCCCC3)c2c1` [P-0239, 4-[1-[(1-fluorocyclohexyl)methyl]-3-(1H-pyrazol-4-yl)pyrrolo[3,2-b]pyridin-6-yl]-3,5-dimethyl-isoxazole], the 50% inhibitory concentration (IC50) with bromodomain is less than 10 µM.

`Cc1noc(C)c1-c1ccc2c(-c3cnn(C)c3)cn(C(C)c3ccccc3)c2c1` (stereo not shown) [P-0232, 3,5-dimethyl-4-[3-(1-methylpyrazol-4-yl)-1-(1-phenylethyl)indol-6-yl]isoxazole] showed an IC50 in the assay on bromodomain of less than 10 µM.

In the case of `Cc1noc(C)c1-c1cnc2c(I)c(C(F)(F)F)[nH]c2c1` [P-0225, 4-[3-iodo-2-(trifluoromethyl)-1H-pyrrolo[3,2-b]pyridin-6-yl]-3,5-dimethyl-isoxazole], the IC50 in the assay on bromodomain is less than 10 µM.

Compound `Cc1noc(C)c1-c1ccc2c(-c3cnn(C)c3)cn(Cc3ccccc3C(F)(F)F)c2c1` [P-0228, 3,5-dimethyl-4-[3-(1-methylpyrazol-4-yl)-1-[[2-(trifluoromethyl)phenyl]methyl]indol-6-yl]isoxazole] had an IC50 in the assay with bromodomain of less than 10 µM.

Take `Cc1noc(C)c1-c1cnc2c(-c3cnn(C4CC4)c3)cn(CC3(F)CCCCC3)c2c1` [P-0236, 4-[3-(1-cyclopropylpyrazol-4-yl)-1-[(1-fluorocyclohexyl)methyl]pyrrolo[3,2-b]pyridin-6-yl]-3,5-dimethyl-isoxazole]: the IC50 with bromodomain is less than 10 µM.

Turning to `Cc1noc(C)c1-c1cnc2c(-c3cnn(C(F)F)c3)cn(CC3(F)CCCCC3)c2c1` [P-0235, 4-[3-[1-(difluoromethyl)pyrazol-4-yl]-1-[(1-fluorocyclohexyl)methyl]pyrrolo[3,2-b]pyridin-6-yl]-3,5-dimethyl-isoxazole], the half-inhibitory concentration (IC50) in the assay with bromodomain is less than 10 µM.

For `Cc1noc(C)c1-c1ccc2c(-c3cnn(C)c3)cn(Cc3ccccc3Cl)c2c1` [P-0227, 4-[1-[(2-chlorophenyl)methyl]-3-(1-methylpyrazol-4-yl)indol-6-yl]-3,5-dimethyl-isoxazole], the half-inhibitory concentration (IC50) in the assay with bromodomain was less than 10 µM.

In the assay with bromodomain, `Cc1noc(C)c1-c1cnc2c(-c3cnn(C(F)F)c3)cn(CC3(F)CCC(F)(F)CC3)c2c1` [P-0243, 4-[3-[1-(difluoromethyl)pyrazol-4-yl]-1-[(1,4,4-trifluorocyclohexyl)methyl]pyrrolo[3,2-b]pyridin-6-yl]-3,5-dimethyl-isoxazole] yielded an IC50 of less than 10 µM.

The compound `Cc1noc(C)c1-c1cnc2[nH]ccc2c1` [P-0246, 3,5-dimethyl-4-(1H-pyrrolo[2,3-b]pyridin-5-yl)isoxazole] had an IC50 in the assay with bromodomain of less than 10 µM.

`Cc1noc(C)c1-c1cnc2c(I)cn(CC3(F)CCCCC3)c2c1` [P-0234, 4-[1-[(1-fluorocyclohexyl)methyl]-3-iodo-pyrrolo[3,2-b]pyridin-6-yl]-3,5-dimethyl-isoxazole]: the IC50 in the assay on bromodomain is less than 10 µM.

`Cc1noc(C)c1-c1cnc2c(-c3cnn(C(F)F)c3)cn(CC3(F)CCC(=O)CC3)c2c1` [P-0242, 4-[[3-[1-(difluoromethyl)pyrazol-4-yl]-6-(3,5-dimethylisoxazol-4-yl)pyrrolo[3,2-b]pyridin-1-yl]methyl]-4-fluoro-cyclohexanone]: the IC50 with bromodomain was less than 10 µM.

`Cc1noc(C)c1-c1cnc2c(I)cn(CC3(F)CCC4(CC3)OCCO4)c2c1` [P-0240, 4-[1-[(8-fluoro-1,4-dioxaspiro[4.5]decan-8-yl)methyl]-3-iodo-pyrrolo[3,2-b]pyridin-6-yl]-3,5-dimethyl-isoxazole] displayed an IC50 in the assay on bromodomain of less than 10 µM.

In the assay with bromodomain, `Cc1noc(C)c1-c1cnc2c(c1)c(C(O)C1CCC(F)(F)CC1)cn2C` (stereo not shown) [P-0101, (4,4-difluorocyclohexyl)-[5-(3,5-dimethylisoxazol-4-yl)-1-methyl-pyrrolo[2,3-b]pyridin-3-yl]methanol] yielded an IC50 of less than 10 µM.

The compound `Cc1noc(C)c1-c1cnc2c(-c3cnn(CC(F)(F)F)c3)cn(CC3(F)CCCCC3)c2c1` [P-0237, 4-[1-[(1-fluorocyclohexyl)methyl]-3-[1-(2,2,2-trifluoroethyl)pyrazol-4-yl]pyrrolo[3,2-b]pyridin-6-yl]-3,5-dimethyl-isoxazole] gave an IC50 in the assay on bromodomain of less than 10 µM.
